In patent US8685423B2, “Controlling mealybugs” (priority 2011, dated 2014):

Tested on: mealybug, Pseudococcus spp.
Test: Field efficacy on mealy bug, small-plot trials on cotton (Trials A, B, C)
Format: in vivo
Conditions: Sulfoxaflor 50 g/ha, Chlorpyrifos 500 g/ha, mixture 50 + 500 g/ha
Procedure: Field Efficacy on Mealy Bug
Applications were made to cotton, Gossypium hirsutum, using small-plot efficacy methods. Chemicals were diluted in water and all treatments were applied using a backpack sprayer calibrated to deliver 500 liters of spray per hectare. Experimental plots measured 5 by 10 meters and each treatment was replicated three times in each trial. Prior to treatment, 20 plants that were uniformly infested with mealybug, Pseudococcus spp., were marked in each experimental plot. At the specified intervals after treatment, the severity of mealybug infestation on the marked plants was rated using a 0-4 scale, where 0=no infestation and 4=stunted, blackened plant. The score for each plant in each experimental plot was summed to provide a total severity score for the plot. Data were transformed to percent control relative to the untreated plots, then subjected to analysis of variance, and means were separated using Tukey's HSD (p=0.1). Expected control was calculated using the method of Colby and compared to observed control. See the Table Section for the results of the Field Trials.

| SMILES | % Control (Trial A, 3 DAT) | % Control (Trial A, 7 DAT) | % Control (Trial A, 11 DAT) | % Control (Trial B, 3 DAT) | % Control (Trial B, 7 DAT) | % Control (Trial B, 11 DAT) | % Control (Trial B, 14 DAT) | % Control (Trial C, 4 DAT) | % Control (Trial C, 8 DAT) | % Control (Trial C, 11 DAT) | % Control (Trial C, 14 DAT) |
| --- | --- | --- | --- | --- | --- | --- | --- | --- | --- | --- | --- |
| CCOP(=S)(OCC)Oc1nc(Cl)c(Cl)cc1Cl [Chlorpyrifos] | 35.64% | 43.34% | 43.60% | 35.23% | 38.80% | 33.51% | 26.89% | 36.44% | 33.37% | 28.24% | 23.03% |
| CC(c1ccc(C(F)(F)F)nc1)S(C)(=O)=NC#N (stereo not shown) [Sulfoxaflor] | 17.56% | 21.65% | 20.68% | −2.66% | 7.81% | 7.81% | 5.32% | 7.39% | 9.19% | 4.76% | 2.49% |
